From patent US8618082B2, “Lupeol anti-tumor agent and uses thereof” (Wisconsin Alumni Research Foundation, priority 2004, dated 2013)
Entries after “also recorded” stand apart in the source; their conditions may differ.

Legend:
[1] = system: CD-1 mouse skin; format: in vivo
Protocol: FIG. 8. Two stage carcinogenesis tumor data in CD-1 mice: Inhibitory effect of Lupeol on DMBA-initiated and TPA-promoted tumor formation in CD-1 mice: In each group, 20 animals were used. Tumorigenesis was initiated in the animals by a single topical application of 200 nmol DMBA in 0.2 ml vehicle on the dorsal shaved skin, and 1 week later, the tumor growth was promoted with twice-weekly applications of 3.2 nmol TPA in 0.2 ml vehicle. To assess its anti-skin tumor-promoting effect, Lupeol at a dose of 2 mg/animal was applied topically 30 min prior to each TPA application in different groups. Treatment with TPA alone or Lupeol plus TPA was repeated twice weekly up to the termination of the experiments at 28 weeks. Animals in all the groups were watched for any apparent signs of toxicity, such as weight loss or mortality during the entire period of study. Skin tumor formation was recorded weekly, and tumors larger than 1 mm in diameter were included in the cumulative number only if they persisted for 2 weeks or more. The tumor data is represented as the percentage of mice with tumors (a), the number of tumors per mouse (b) and the number of tumors per group (c). The data was analyzed by Wilcoxon rank sum test and χ^2 analysis.
Female CD-1 mice were used in DMBA- and TPA-induced, two-stage skin tumorigenesis protocol as described earlier (Katiyar et al., 1996). The dorsal side of the skin was shaved using electric clippers, and the mice with hair cycles in the resting phase were used for tumor studies. In each group, 20 animals were used. Tumorigenesis was initiated in the animals by a single topical application of 200 nmol DMBA in 0.2 ml vehicle on the dorsal shaved skin, and 1 week later, the tumor growth was promoted with twice-weekly applications of 3.2 nmol TPA in 0.2 ml vehicle. […] Treatment with TPA alone or Lupeol plus TPA was repeated twice weekly up to the termination of the experiments at 28 weeks. Animals in all the groups were watched for any apparent signs of toxicity, such as weight loss or mortality during the entire period of study. Skin tumor formation was recorded weekly, and tumors larger than 1 mm in diameter were included in the cumulative number only if they persisted for 2 weeks or more.
A two-tailed Student's t test was used to assess the statistical significance between the TPA treated and Lupeol+TPA treated groups. A p value<0.05 was considered statistically significant. In tumorigenesis experiments, the statistical significance of difference between TPA and Lupeol+TPA groups was evaluated by the Wilcoxon rank sum test and χ^2 analysis.

[2] = system: PARP, acinus, Bcl2, Bax, Caspase 7 in LNCaP cells; test: PARP cleavage and apoptosis protein expression in LNCaP cells (western blot); format: cell-based, human
Protocol: FIG. 12 depicts effect of Lupeol treatment on PARP cleavage and on protein expression of acinus, in LNCaP cells. Cells were treated with specified concentrations of Lupeol for 48 h, harvested and total cell lysates were prepared. PARP cleavage and the expression of acinus, were determined by western blot analysis. Equal loading was confirmed by stripping immunoblots and reprobing them for β-actin. The immunoblots shown here are representative of three independent experiments with similar results.

[3] = system: LNCaP cells; test: LNCaP viability with anti-Fas mAb alone or combined with Lupeol, MTT assay; format: cell-based, human
Protocol: FIG. 15 depicts effect of Lupeol treatment in combination with anti-Fas mAb on the growth of LNCaP cells and on the expression of Fas receptor in LNCaP and PrEC cells: (a) Cells were treated with specified concentrations anti-Fas mAb for 48 h and cell viability was determined by MTT assay. The values are represented as the percent viable cells where vehicle-treated cells were regarded as 100% viable. Data represents mean value of percent viable cells±S.E of three independent experiments. V represents control and vehicle (DMSO) treated cells respectively. (b). Cells were treated with specified concentrations of Lupeol alone, anti-Fas mAb or with combination (Lupeol+anti-Fas mAb) for 48 h and cell viability was determined by MTT assay. “a” and “b” represent pre-treatment and co-treatment of cells with anti-Fas mAb respectively. The values are represented as the percent viable cells where vehicle-treated cells were regarded as 100% viable. Data represents mean value of percent viable cells±S.E of three independent experiments.

[4] = system: CWR22Rv1 cells; test: CWR22Rv1 xenograft tumor growth in athymic nude mice; format: in vivo, mouse; details: Lupeol 1 mg/animal i.p. three times a week, vs control mice
Protocol: FIG. 18 depicts effect of lupeol treatment on the growth of tumors from CWR22Rv1 cells implanted in nude mice. The growth was measured in terms of average volume of tumors as a function of time. Data is represented as mean±SD. * indicates p<0.05 (B) Number of mice remaining with tumor volumes<1000 mm^3 after treatment with corn oil alone or Lupeol for indicated weeks. * indicates p<0.01
To determine, whether lupeol could reduce the tumorigenicity of prostate cancer cells in animal model, androgen-dependent prostate cancer cells CW22Rv1, were implanted in a Athymic nude mouse xenograft model. Mice were given i.p. injection of Lupeol (1 mg/animal) three times a week. Tumor growth was measured weekly in terms of volume of tumors as function of time.

[5] = system: Ras, PKCα, ODC, pAkt in AsPC-1 cells; test: Ras, PKCα, ODC, PI3K, pAkt expression in AsPC-1 cells; format: cell-based
Excerpt: FIG. 23 depicts effect of Lupeol treatment on the expression of Ras, PKCα, ODC, PI3K (P85), pAkt and total Akt, p38 and Erk1/2 proteins in AsPC-1 cells.

[6] = system: I-κBα protein and p65-subunit of NFκB in AsPC-1 cells; test: Phosphorylation of IκBα and NFκB p65 in AsPC-1 cells; format: cell-based
Excerpt: FIG. 24 depicts effect of Lupeol treatment on the phosphorylation of I-κBα protein and p65-subunit of NFκB transcriptional factor in AsPC-1 cells.

[7] = system: mouse ear; details: Nikiema et al., 2001; cited from earlier work
[8] = Lupeol 2 mg/animal, 28 weeks, vs non-Lupeol treated group

Structure (SMILES): C=C(C)[C@@H]1CC[C@]2(C)CC[C@]3(C)[C@H](CC[C@@H]4[C@@]5(C)CC[C@H](O)C(C)(C)[C@@H]5CC[C@]43C)[C@@H]12 [Lupeol, Lup-20(29)-en-3β-ol]
- percentage of mice with skin tumors ([1]; Lupeol 2 mg/animal topical 30 min prior to each TPA, 28 weeks, non-Lupeol group 100%): 53%
- total number of tumors per group ([1]; Lupeol 2 mg/animal, 28 weeks, 20 animals, non-Lupeol group 125): 33 tumors
- inhibition of number of tumors per mouse [1, 8]: 74%
- inhibition of total number of tumors [1, 8]: 74%
- number of tumors per mouse ([1]; Lupeol 2 mg/animal, 28 weeks, non-Lupeol group 6.25): 1.65 tumors per mouse
- latency period of tumor formation ([1]; Lupeol 2 mg/animal, p<0.05, χ2 test): significantly increased
- body weight gain ([1]; Lupeol treatment for 28 weeks, data not shown): did not significantly affect
- signs of toxicity ([1]; mouse, in vivo): none of the treated mice exhibited any signs of toxicity
- Bcl2, Bax and Caspase 7 protein expression [2]: no change
- cleavage of PARP and Acinus protein ([2]; 48 hours): induce the cleavage of PARP protein and degradation of Acinus protein; also recorded: induced cleavage of PARP and Acinus protein
- combination effect of Lupeol with Fas-agonist (anti-Fas mAb) on cell death ([3]; LNCaP cells, vs additive effect of the two alone): synergistic effect; also recorded: significant synergistic manner
- cell death of LNCaP cells ([3]; anti-Fas mAb pretreated LNCaP cells treated with Lupeol (30 μg)): 95-98%
- tumor growth (tumor volume as function of time) [4]: significant reduction in tumor growth; also recorded: significantly Lower than control mice
- expression of Ras protein [5]: decrease
- phosphorylation of Akt [5]: reduction in the phosphorylation of Akt
- protein expression of ODC [5]: significant reduction
- protein expression of PKCa [5]: significant reduction
- phosphorylation of IkBα [6]: significant reduction
- phosphorylation of NFkB [6]: reduction in the phosphorylation of NFkB
- protection against croton oil induced edema in mouse ear [7]: more efficacy than indomethacin
